The record followed here is patent US20240300942A1, “SMALL MOLECULES FOR TREATEMENT OF CANCER” (VRise Therapeutics Inc., priority 2021, published 2024).

One data set has as its system MIAPACA-2 cell line. Description: In vitro cell proliferation assay (CCK-8) in MIAPACA-2 cell line. Type of data set: cell-based. The settings on record: Homo sapiens, MIA PaCa-2, 72 hours; for inhibition at 3 µM: TC1: Test Concentration of 3 uM; for inhibition at 10 µM: TC2: Test Concentration of 10 uM. The procedure: (§1) Growth inhibition assays is to be carried out using 10% FBS supplemented media. Cells are to be seeded at a desired concentration of 1,500-6,000 cells/well in a 96-well plate. Test compounds at a concentration range from 1 to 30 uM will be added after 24 hours. Growth will be assessed using the CCK-8 kit for measuring reduction at 0 h (prior to the addition of the test compound) and 72 hours after the addition of test compound. Absorbance read on a BIO-RAD iMark Microplate or any equivalent microplate reader at a wavelength of 450 nm. Data was analysed and percent inhibition due to the test compound compared to the control is calculated accordingly.

The next data set concerns NCI-H358 cell line. Description: In vitro cell proliferation assay (CCK-8) in NCI-H358 cell line. It is filed as cell-based. The settings on record: Homo sapiens, 72 hours; for inhibition at 3 µM: TC1: Test Concentration of 3 uM; for inhibition at 10 µM: TC2: Test Concentration of 10 uM. The method, then:
as §1

In the next data set the test system is NCI-H1373. Description: 3D cell proliferation assay, KRAS G12C mutant cell line NCI-H1373. It is filed as cell-based. The following applies: Homo sapiens, 168 h, 7 day. The procedure: (§2) Growth inhibition assays was carried out using 10% FBS supplemented media. Cells were seeded at a desired concentration of 1000-6000 cells/well in a well plate with desired number of wells. Test compounds at a desired concentration range were added after 24 hours. Growth was assessed using the Cell Titer-Glo (CTG. Cell Signaling) for measuring reduction at 0 h (prior to the addition of the test compound) and 3 day (2D) or 7 day (3D) after the addition of test compound. Absorbance read on a BIO-RAD iMark Microplate or any equivalent microplate reader at a predetermined a wavelength for e.g. 450 nm. Data was be analysed and percent inhibition and/or IC50 for each test compound is calculated accordingly. Results: Data provide for a representative Cpd A across various cell lines including selectivity

The next data set relates to NCI-H1792. Description: 3D cell proliferation assay, KRAS G12C mutant cell line NCI-H1792. Type of data set: cell-based. The following applies: Homo sapiens, 168 h, 7 day. The method, then:
as §2

A further data set deals with NCI-H23. Description: 3D cell proliferation assay, KRAS G12C mutant cell line NCI-H23. Type of data set: cell-based. The settings on record: Homo sapiens, 168 h, 7 day. The procedure:
as §2

A further data set has as its system Calu-1. Description: 3D cell proliferation assay, KRAS G12C mutant cell line Calu-1. Type of data set: cell-based. The following applies: Homo sapiens, 168 h, 7 day. The procedure: as §2
For a further data set, the system named is SW-837. Description: 3D cell proliferation assay, KRAS G12C mutant cell line SW-837. It is filed as cell-based. The settings on record: Homo sapiens, SW837, 168 h, 7 day. The method, then: as §2
For another data set, the system named is SW1463. Description: 3D cell proliferation assay, KRAS G12C mutant cell line SW1463. Type of data set: cell-based. The following applies: Homo sapiens, 168 h, 7 day. The method, then:
as §2

A further data set concerns eCT26. Description: 3D cell proliferation assay, eCT26 (engineered for KRASG12C mutation). It is filed as cell-based. The settings on record: 168 h, 7 day. The method, then:
as §2

For the next data set, the system named is CO-04-0070. Description: 3D cell proliferation assay, CO-04-0070 patient derived cell line. It is filed as cell-based. The settings on record: 168 h, CO-04-0070 (PDC), 7 day. The procedure:
as §2

A further data set has as its system A549. Description: 2D cell proliferation assay, non-KRAS G12C mutant cell line A549. It is filed as cell-based. The procedure: as §2
The test system of a further data set is HCT116. Description: 2D cell proliferation assay, non-KRAS G12C mutant cell line HCT116. Type of data set: cell-based. The procedure:
as §2

A further data set deals with human KRAS G12C protein (Homo sapiens, UniProt P01116, G12C). Description: HTRF-based nucleotide exchange assay detecting GTP binding to K-Ras. The settings on record: KRAS G12C (aa 2-169), SOS1 (aa 564-1049), read-out: IC50, SOS1 mediated nucleotide exchange. It is filed as biochemical. The method, then: Compounds (each 10 concentrations or any other concentration of choice at 3-fold or fold of choice for serial dilutions with a starting concentration of ˜300 um or 100 μM or 50 uM) were then delivered to the reaction wells using acoustic dispenser (Echo, Labcyte) and incubated with the Kras/aGST-Tb antibody for 1-hour at room temperature. After 1-hour incubation 5 μL of SOS1/GTP solution (SOS1—(corresponding to amino acid 564-1049) and GDP-DY-647P1 prepared using reaction buffer-20 mM Hepes, pH7.4, 150 mM Nacl, 5 mM MgCl2, 1 mM DTT, 0.05% BSA, 0.0025% NP40) was added to reaction wells to initiate the exchange reaction. HTRF based SOS1 mediated exchange of GDP to GTP was measured on a microplate reader PEHRAstar (BMG Labtech) at an excitation wavelength of 337 nm and emission wavelengths of 665 and 620 nm. No-SOS1 reaction or highest control compound concentration was used as blank and % inhibition was calculated and/or IC50 was determined using Sigmoidal dose response (variable slope) equation.
(In general: TR-FRET usually uses a lanthanide donor and a delayed reading to cut background.)

Data set [1] relates to NCI-H358 Human Non-Small Cell Lung Cancer Xenograft. Description: Anti-tumor effect in female Balb/c nude mice bearing NCI-H358 xenograft. Type of data set: in vivo. The procedure:
NCI-H358 Xenograft was used to test representative compound of the invention where in NCI-H358 cells were inoculated in a mice model representing Lung Cancer with […] comprising of Control (Vehicle treated, GI) and two treatment cohorts/group namely Paclitaxel as standard (10 mg/kg Q3D, IV, G3) and test compound (100 mg/kg QD, Cpd A, G3) with each cohorts/group. Treatment was initiated when maximum tumor growth reached >200 mm3 and continued till the Vehicle are reached a maximum tumor volume of 2000 mm3.

human KRAS G12C protein, sequence (P01116 2-169 isoform P01116-2 G12C): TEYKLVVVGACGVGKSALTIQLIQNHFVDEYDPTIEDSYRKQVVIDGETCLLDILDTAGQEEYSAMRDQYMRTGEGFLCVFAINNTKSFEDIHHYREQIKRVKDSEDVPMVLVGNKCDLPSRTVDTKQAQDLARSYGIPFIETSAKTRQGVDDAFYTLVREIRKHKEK

Turning to `C=CC(=O)N1CCN(c2nc(OC[C@@H]3CCCN3C)c(C#N)c3c2CCN(c2cccc4cccc(Cl)c24)C3)CC1CC#N` (mixture of isomers) [Ex 23, 1-(4-acryloyl-3-(cyanomethyl)piperazin-1-yl)-6-(8-chloronaphthalen-1-yl)-3-(((S)-1-methylpyrrolidin-2-yl)methoxy)-5,6,7,8-tetrahydro-2,6-naphthyridine-4-carbonitrile], in the data set on MIAPACA-2 cell line, the inhibition (commonly the share of the control response that was lost under treatment) at 3 µM lay in the range of 75 to 100% and the inhibition at 10 µM fell in the range of 75 to 100%. In the data set on NCI-H358 cell line, this molecule registered an inhibition at 3 µM of 75 to 100% and an inhibition at 10 µM of 75 to 100%.

Take `C=CC(=O)N1CCN(c2nc(OC[C@@H]3CCCN3C)c(C#N)c3c2CCN(c2cccc4cccc(Cl)c24)C3)CC1CC#N` (single isomer, unassigned) [Ex 24]: in the data set on MIAPACA-2 cell line, the inhibition at 3 µM lay in the range of 75 to 100% and the inhibition at 10 µM fell in the range of 75 to 100%. Besides, in the data set with NCI-H358 cell line, the inhibition at 3 µM lay in the range of 75 to 100% and the inhibition at 10 µM fell in the range of 75 to 100%.

In the case of `C=CC(=O)N1CCN(c2nc(OC[C@@H]3CCCN3C)c(C#N)c3c2CCN(c2cccc4cccc(Cl)c24)C3)C[C@@H]1CC#N` (single isomer, unassigned) [Ex 25], the IC50 (usually the point on the concentration scale where inhibition reaches its midpoint) is 100 to 200 nM in the data set with NCI-H1373; 200 to 1000 nM in the data set on NCI-H1792; 100 to 200 nM in the data set with NCI-H23; 100 to 200 nM with Calu-1; 100 to 200 nM with SW-837; < 100 nM in the data set on SW1463. Also, the concentration for half-maximal inhibition (IC50) in the data set on eCT26 is < 100 nM; with CO-04-0070, 100 to 200 nM; at human KRAS G12C protein, < 10 nM. The “Fold Selectivity over KRAS G12C Mutant Cell Line” value with A549 was “ΩΩΩ (ΩΩΩ >600 fold)”; in the data set with HCT116, “Ω (Ω = >100 fold)”. Further, the “reduction in tumour volume as compared to Paclitaxel” value in data set [1] (100 mg/kg QD vs Paclitaxel 10 mg/kg Q3DX3 Weeks, IV) is given as “statistically significant reduction”. For the same molecule, the “Tumor Growth inhibition (TGI)” value in data set [1] (100 mg/kg QD, NCI-H358 xenograft, n=5) was > 65%. In addition, the “reduction in tumor volume” value in data set [1] (100 mg/kg QD, from day 3 onwards, P<0.01) is recorded as “statistically significant”. Moreover, the “effect on overall body weight” value in data set [1] (over the 21-day study period) is listed as “No significant effect”.

In the case of `C=C(F)C(=O)N1CCN(c2nc(OC[C@@H]3CCCN3C)c(C#N)c3c2CCN(c2cccc4cccc(Cl)c24)C3)C[C@H]1CC#N` [Ex 28, 6-(8-chloronaphthalen-1-yl)-1-((R)-3-(cyanomethyl)-4-(2-fluoroacryloyl)piperazin-1-yl)-3-(((S)-1-methylpyrrolidin-2-yl)methoxy)-5,6,7,8-tetrahydro-2,6-naphthyridine-4-carbonitrile], the inhibition at 3 µM with MIAPACA-2 cell line was in the range of 75 to 100%; in the data set on NCI-H358 cell line it was 50 to 75%. Further, the inhibition at 10 µM with MIAPACA-2 cell line and in the data set on NCI-H358 cell line was 75 to 100% in each case.

`C=CC(=O)N1CCN(c2nc(N3CC(C)OC(C)C3)c(C#N)c3c2CCN(c2cccc4ccccc24)C3)CC1` (centres unmarked) [Ex 52, 1-(4-acryloylpiperazin-1-yl)-3-(2,6-dimethylmorpholino)-6-(naphthalen-1-yl)-5,6,7,8-tetrahydro-2,6-naphthyridine-4-carbonitrile]: the inhibition at 10 µM with MIAPACA-2 cell line and with NCI-H358 cell line was 75 to 100% throughout.

As for `C=CC(=O)N1CCN(c2nc(N3CCN(S(C)(=O)=O)CC3)c(C#N)c3c2CCN(c2cccc4ccccc24)C3)CC1` [Ex 53, 1-(4-acryloylpiperazin-1-yl)-3-(4-(methylsulfonyl)piperazin-1-yl)-6-(naphthalen-1-yl)-5,6,7,8-tetrahydro-2,6-naphthyridine-4-carbonitrile], the inhibition at 10 µM with MIAPACA-2 cell line and in the data set on NCI-H358 cell line was 75 to 100% throughout.

For the molecule `C=CC(=O)N1CCN(c2nc(N3CCN(CC)CC3)c(C#N)c3c2CCN(c2cccc4ccccc24)C3)CC1` [Ex 54, 1-(4-acryloylpiperazin-1-yl)-3-(4-ethylpiperazin-1-yl)-6-(naphthalen-1-yl)-5,6,7,8-tetrahydro-2,6-naphthyridine-4-carbonitrile], the inhibition at 10 µM in the data set with MIAPACA-2 cell line and in the data set with NCI-H358 cell line was 75 to 100% throughout.

Turning to `C=CC(=O)N1CCN(c2nc(OC[C@@H]3CCCN3C)c(C#N)c3c2CCN(c2cccc4ccccc24)C3)CC1` [Ex 55, (S)-1-(4-acryloylpiperazin-1-yl)-3-((1-methylpyrrolidin-2-yl)methoxy)-6-(naphthalen-1-yl)-5,6,7,8-tetrahydro-2,6-naphthyridine-4-carbonitrile], the inhibition at 10 µM in the data set with MIAPACA-2 cell line and in the data set with NCI-H358 cell line was 75 to 100% each time.
